Measurements published in patent publication US20210253598A1, “ARYL ANNULATED MACROCYCLIC INDOLE DERIVATIVES” (priority 2017, published 2021).
Several values for one entry are separate records, joined by “and”; a condition that tells them apart may be missing. Identical values can stand only once. Counter-ions that a name gives are not always drawn. Like-named read-outs stand apart in the source and are kept apart here.

Tests used:
[1] = tested on: SUDHL5; test: Induction of caspase-3/7 activity in SUDHL5 cells (Assay 4); format: cell-based
Method in brief: (§1)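 Luminescent Caspase-Glo 3/7 read-out in SUDHL5 and SUDHL10 cells after 3 h compound exposure at 37 °C, followed by 1 h reagent incubation.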

[2] = target: BCL-XL (Homo sapiens, UniProt Q07817); test: Protein-protein interaction assay BCL-XL/Bad BH3 peptide, TR-FRET (BCL-XL assay, Assay 2); format: binding; settings: His-BCL-XL / Bad BH3 peptide, median
[3] = target: BCL-2 (Homo sapiens, UniProt P10415); test: Protein-protein interaction assay BCL-2/Bad BH3 peptide, TR-FRET (BCL-2 assay, Assay 3); format: binding; settings: His-BCL-2 / Bad BH3 peptide, median
Procedure: The dose-dependent inhibition by the compounds described in this invention of the interaction between BCL-2 and the BH3 domain of Bad (both human) was determined using a steady state binding competition assay with time-resolved fluorescence energy transfer (TR-FRET) readout. For that purpose BCL-2 (amino acids 1-211, C-terminal fused to a hexahistidine (6×His) tag (SEQ ID 5) and a synthetic Bad BH3-derived peptide of sequence Biotin-PEG2-PEG2-[sequence]-Nle-[sequence]-amide (SEQ ID 4) served as protein receptor and tracer ligand respectively. The recombinant BCL-2 protein (expressed in E. coli) was purchased from BPS Bioscience (San Diego, Calif., USA). The Bad BH3-derived peptide can be obtained from e.g. Biosyntan (Berlin, Germany).
For that, 100-fold concentrated DMSO solutions were prepared by serial dilutions (1:3.4) of a 2 mM stock solution in a clear, 384-well microtiter plate (Greiner Bio-One, Frickenhausen, Germany). From there, 50 nl were transferred in a dark test plate (Greiner Bio-One, Frickenhausen, Germany). The assay was initiated by addition of 2 μl of a 2,5-fold concentrated His-BCL-2 solution (usually for a 1 nM end concentration in 5 μl reaction volume) in aqueous assay buffer [50 mM Tris/HCl pH 7, 100 mM sodium chloride (NaCl), 50 mM potassium fluoride (KF), 0.005% Tween-20, 2 mM DTT, 0.1% bovine gamma globulin (BGG)] to the compounds in the assay plate. This was followed by a 10-minute incubation step at 22° C. for pre-equilibration of the putative complex between His-BCL-2 and the compounds.
The mixture was incubated in the dark for one hour at 22° C. and then overnight at 4° C. The formation of BCL-2/Bad complexes was determined by measuring the resonance energy transfer of the anti-His-Eu-cryptate antibody to the streptavidin-XL665 present in the reaction. For that purpose, the fluorescence emission at 620 nm and 665 nm after excitation at 330-350 nm was measured in a TR-FRET measuring instrument, for instance a Rubystar or a Pherastar (both from BMG Lab Technologies, Offenburg, Germany) or a Viewlux (Perkin-Elmer). The ratio of the emission at 665 nm and at 622 nm was used as indicator of the amount of BCL-2/Bad complexes present.
The resulting data (ratio) were normalized, taking 0% inhibition as the mean value of control measurements (usually 32 data points) where all reagents were included. In this case 50 nl DMSO were used instead of compounds. […] IC50 values were determined by regression analysis based on a 4 parameter equation (minimum, maximum, IC50, Hill; Y=Max+(Min−Max)/(1+(X/IC50)^Hill) using the Screener Software (Genedata).

[4] = tested on: A2780; test: Anti-proliferative effect in A2780 cells, CellTiter-Glo (Assay 7); format: cell-based
Method in brief: (§2)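 72 h CTG viability assay, 37 °C, humidified. Time-zero plate as baseline; IC50 vs day 0 and DMSO controls.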

[5] = tested on: SUDHL10; test: Induction of caspase-3/7 activity in SUDHL10 cells (Assay 4); format: cell-based
Method in brief: as §1

[6] = tested on: SUDHL5; test: Induction of cytotoxicity in SUDHL5 cells, CellTiter-Glo (Assay 6); format: cell-based
Method in brief: (§3)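 Short-exposure cytotoxicity: 5 h compound, 37° C, humidified; CellTiter-Glo luminescence; cell-free medium control; edge wells omitted.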

[7] = tested on: SUDHL10; test: Induction of cytotoxicity in SUDHL10 cells, CellTiter-Glo (Assay 6); format: cell-based
Method in brief: as §3

[8] = tested on: SUDHL5; test: Anti-proliferative effect in SUDHL5 cells, CellTiter-Glo (Assay 7); format: cell-based
Method in brief: as §2

[9] = target: MCL-1 (Homo sapiens, UniProt Q07820, K194A/K197A/R201A); test: Protein-protein interaction assay MCL-1/Noxa BH3 peptide, TR-FRET (MCL-1 assay, Assay 1); format: binding; settings: MCL-1 Assay [M] (median), MBP-MCL-1 / Noxa BH3 peptide
Method in brief: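 TR-FRET competition between compounds and a biotin-PEG Noxa BH3 tracer for 1 nM MBP-MCL-1 (residues 173-321). Incubation was 1 h at 22 °C in the dark, then overnight at 4 °C, in 50 mM Tris pH 7 buffer with KF and DTT, after a 10-min compound pre-equilibration. Normalized ratios were fitted with a 4-parameter Hill equation to give IC50.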

[10] = tested on: MV-4-11; test: Anti-proliferative effect in MV-4-11 cells, CellTiter-Glo (Assay 7); format: cell-based
Method in brief: as §2

[11] = tested on: AMO-1; test: Anti-proliferative effect in AMO-1 cells, CellTiter-Glo (Assay 7); format: cell-based
Procedure: Assessment of the Anti-Proliferative Effect of Compounds in Different Cell Lines
The impact of compounds on the proliferation of different cell lines was assessed using the CellTiter-Glo® Luminescent Cell Viability reagent from Promega (G7573).
In parallel, cells were plated in a reference (day 0) plate for time zero determination. Cells were incubated in a humidified incubator at 37° C. overnight.
Rim wells were excluded. The cells were incubated for 72 hours in a humidified incubator at 37° C. The day 0 plate was measured by adding 30 μL/well of CTG solution (CellTiter-Glo® Luminescent Cell Viability reagent, Promega G7573) to time zero wells in the reference plate followed by a 10 minutes incubation and luminescence reading at 0.1 ms. using the PHERAstar FS microplate reader (BMG Labtech).
After 72 hours incubation, the treated plates were measured in the same way as the day 0 plate mentioned above. The Bella DRC Master Sheet was used to calculate IC50s, with CI=day 0 values and C0=DMSO control values.

[12] = Homo sapiens, SU-DHL-5, 3 h, SUDHL5, 3 hours treatment, Caspase-Glo 3/7, median, read-out: Caspase SUDHL5 [M] (median)
[13] = A2780, 72 hours incubation, CellTiter-Glo; several values per example; read-out: Antiproli A2780
[14] = Homo sapiens, A2780, 72 h, A2780, 72 hours incubation, CellTiter-Glo; several values per example; read-out: Antiproli A2780
[15] = Homo sapiens, SU-DHL10, 3 h, SUDHL10, 3 hours treatment, Caspase-Glo 3/7, median, read-out: Caspase SUDHL10 [M] (median)
[16] = Homo sapiens, SU-DHL-5, 5 h, SUDHL5, 5 hours incubation, median, read-out: Cytotox SUDHL5 [M] (median)
[17] = Homo sapiens, SU-DHL10, 5 h, SUDHL10, 5 hours incubation, median, read-out: Cytotox SUDHL10 [M] (median)
[18] = Homo sapiens, SU-DHL-5, 72 h, SUDHL5, 72 hours incubation, CellTiter-Glo, median, read-out: Antiproli SUDHL5 [M] (median)
[19] = Homo sapiens, MV4-11, 72 h, MV-4-11, 72 hours incubation, CellTiter-Glo; several values per example; read-out: Antiproli MV-4-11
[20] = SUDHL5, 3 hours treatment, Caspase-Glo 3/7, median, read-out: Caspase SUDHL5 [M] (median)
[21] = SUDHL10, 3 hours treatment, Caspase-Glo 3/7, median, read-out: Caspase SUDHL10 [M] (median)
[22] = read-out: Caspase SUDHL5 [M] (median), SUDHL5, 3 hours treatment, Caspase-Glo 3/7
[23] = read-out: Antiproli AMO-1; AMO-1, 72 hours incubation, CellTiter-Glo; several values per example
[24] = read-out: Antiproli MV-4-11; MV-4-11, 72 hours incubation, CellTiter-Glo; several values per example
[25] = read-out: Antiproli A2780; A2780, 72 hours incubation, CellTiter-Glo; several values per example
[26] = read-out: Caspase SUDHL10 [M] (median), SUDHL10, 3 hours treatment, Caspase-Glo 3/7
[27] = SUDHL5, 5 hours incubation, median, read-out: Cytotox SUDHL5 [M] (median)
[28] = SUDHL10, 5 hours incubation, median, read-out: Cytotox SUDHL10 [M] (median)
[29] = read-out: Antiproli SUDHL5 [M] (median), SUDHL5, 72 hours incubation, CellTiter-Glo

Sequence of BCL-XL (Q07817 1-212): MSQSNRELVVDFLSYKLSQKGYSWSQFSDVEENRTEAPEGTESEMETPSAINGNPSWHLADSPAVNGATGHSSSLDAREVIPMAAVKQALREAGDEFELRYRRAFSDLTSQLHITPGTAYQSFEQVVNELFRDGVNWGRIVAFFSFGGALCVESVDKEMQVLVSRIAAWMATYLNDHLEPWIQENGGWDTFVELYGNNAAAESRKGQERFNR
Sequence of MCL-1 (Q07820 173-321 K194A/K197A/R201A, looked up): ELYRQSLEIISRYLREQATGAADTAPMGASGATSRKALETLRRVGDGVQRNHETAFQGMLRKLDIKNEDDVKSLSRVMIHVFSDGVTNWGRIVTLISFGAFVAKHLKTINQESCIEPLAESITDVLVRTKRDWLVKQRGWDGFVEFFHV
Sequence of BCL-2 (P10415 1-211): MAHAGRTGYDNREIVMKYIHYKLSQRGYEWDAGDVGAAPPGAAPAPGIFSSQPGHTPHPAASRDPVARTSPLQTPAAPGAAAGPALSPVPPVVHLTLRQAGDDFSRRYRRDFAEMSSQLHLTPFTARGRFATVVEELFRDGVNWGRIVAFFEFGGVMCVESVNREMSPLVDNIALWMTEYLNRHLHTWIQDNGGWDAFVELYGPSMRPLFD

EC50 [1, 12] [M]	IC50 [2] [µM]	IC50 [3] [µM]	IC50 [4, 14] [µM]	EC50 [5, 15] [M]	IC50 [8, 18] [M]	IC50 [10, 19] [µM]	Compound	IC50 [6, 16] [M]	IC50 [7, 17] [M]	IC50 [9] [M]	IC50 [6, 27] [M]	IC50 [7, 28] [M]	other results
4.3e-06	> 20	> 20	> 33	1.8e-05	5.1e-06		Cc1c2c(nn1C)COCc1nc3ccccc3nc1Cn1c(C(=O)O)c(CCCOc3cccc4ccccc34)c3cccc-2c31 (racemic) [Example 10, (rac)-4,5-Dimethyl-19-[3-(naphthalen-1-yloxy)propyl]-5,7,9,16-tetrahydroindolo[1′,7′:6,7,8]-pyrazolo[4′,3′:9,10][1,6]oxazacycloundecino[3,4-b]quinoxaline-18-carboxylic Acid]	5.6e-06	1.4e-05				IC50 [4, 13]: 20.6 µM
2.5e-06	> 20	> 20	22.8	5.8e-06	2.1e-06	3.57	Cc1c2c(nn1C)COCc1ccccc1Cn1c(C(=O)O)c(CCCOc3cccc4c3CCC4)c3ccc(F)c-2c31 (racemic) [Example 61, (rac)-1-(3-((2,3-Dihydro-1H-inden-4-yl)oxy)propyl)-15-fluoro-13,14-dimethyl-4,9,11,13-tetrahydrobenzo[3,4]pyrazolo[4′,3′:9,10][1,6]oxaazacycloundecino[8,7,6-hi]indole-2-carboxylic Acid]	2.3e-06	5e-06	2.1e-09			
3.2e-06	> 20	> 20	13.9	1e-05	3.1e-06	6.36	Cc1c2c(nn1C)COCc1ccccc1Cn1c(C(=O)O)c(CCCOc3cccc4c3CCCC4)c3ccc(F)c-2c31 (racemic) [Example 62, (rac)-15-Fluoro-13,14-dimethyl-1-(3-((5,6,7,8-tetrahydronaphthalen-1-yl)oxy)propyl)-4,9,11,13-tetrahydrobenzo[3,4]pyrazolo[4′,3′:9,10][1,6]oxaazacycloundecino[8,7,6-hi]indole-2-carboxylic Acid]	2.9e-06	5.2e-06	2.6e-09			
9.3e-06	> 20	18.1	19.7	2.3e-05	6.2e-06	> 33	Cc1c2c(nn1C)COCc1ccccc1Cn1c(C(=O)O)c(CCCOc3ccc(F)c4ccccc34)c3ccc(F)c-2c31 (racemic) [Example 63, (rac)-15-Fluoro-1-(3-((4-fluoronaphthalen-1-yl)oxy)propyl)-13,14-dim4,9,11,13-tetrahydrobenzo[3,4]pyrazolo[4′,3′:9,10][1,6]oxaazacycloundecino[8,7,6-hi]indole-2-carboxylic Acid]	8.3e-06	1.5e-05	4.5e-09			

Further lines, the compound ahead of its results:

Compound	EC50 [1, 12] [M]	IC50 [2] [µM]	IC50 [3] [µM]	IC50 [4, 14] [µM]	EC50 [5, 15] [M]	IC50 [8, 18] [M]	IC50 [10, 19] [µM]	IC50 [6, 16] [M]	IC50 [7, 17] [M]	IC50 [9] [M]	IC50 [6, 27] [M]	IC50 [7, 28] [M]	other results
Cc1c2c(nn1C)CNCc1ccccc1Cn1c(C(=O)O)c(CCCOc3cccc4ccccc34)c3cccc-2c31 (single isomer, unassigned; enantiomer 1) [Example 12, 4,5-Dimethyl-17-[3-(naphthalen-1-yloxy)propyl]-7,8,9,14-tetrahydro-5H-indolo[1,7-bc]pyrazolo-[4,3-e][2,8]benzodiazacycloundecine-16-carboxylic acid-Trifluoroacetic Acid Salt (Enantiomer 1)]		> 20	> 20							2.9e-09			EC50 [1, 20]: 2.4e-06 M; EC50 [5, 21]: 4.9e-06 M; IC50 ([6]; read-out: Cytotox SUDHL5 [M] (median), SUDHL5, 5 hours incubation): 1.9e-06 M; IC50 ([7]; read-out: Cytotox SUDHL10 [M] (median), SUDHL10, 5 hours incubation): 5e-06 M
Cc1c2c(nn1C)COCc1cccnc1Cn1c(C(=O)O)c(CCCOc3cccc4ccccc34)c3ccc(Cl)c-2c31 (single isomer, unassigned; enantiomer 2) [Example 41, 3-Chloro-4,5-dimethyl-17-[3-(naphthalen-1-yloxy)propyl]-5,7,9,14-tetrahydropyrazolo-[4′,3′:9,10]pyrido[3′,2′:3,4][1,6]oxazacycloundecino[8,7,6-hi]indole-16-carboxylic acid-N-ethylethanamine Salt (Enantiomer 2)]										5.8e-09	6e-06	1.4e-05	EC50 [1, 22]: 6.1e-06 M; IC50 [11, 23]: 8.4 µM and 11.2 µM; IC50 [10, 24]: 15.9 µM and 8.2 µM; IC50 [4, 25]: > 33 µM; EC50 [5, 26]: 1.6e-05 M; IC50 [8, 29]: 5.2e-06 M
CCc1nn(CCN2CCOCC2)c2c1-c1c(Cl)ccc3c(CCCOc4cccc5cc(F)ccc45)c(C(=O)O)n(c13)Cc1ccccc1COC2 (single isomer, unassigned; enantiomer 2) [Example 53, (+)-3-Chloro-4-ethyl-17-{3-[(6-fluoronaphthalen-1-yl)oxy]propyl}-6-[2-(morpholin-4-yl)ethyl]-6,7,9,14-tetrahydroindolo[7,1-fg]pyrazolo[3,4-d][2,8]benzoxazacycloundecine-16-carboxylic Acid (Enantiomer 2)]										8.3e-09	2.3e-06	6.5e-06	EC50 [1, 20]: 1.8e-06 M; IC50 ([11]; AMO-1, 72 hours incubation, CellTiter-Glo; several values per example; read-out: Antiproli AMO-1): 9.44 µM; IC50 ([10]; MV-4-11, 72 hours incubation, CellTiter-Glo; several values per example; read-out: Antiproli MV-4-11): 4.91 µM and 8.2 µM; IC50 [4, 13]: 8.15 µM; EC50 [5, 21]: 5.9e-06 M; IC50 ([8]; SUDHL5, 72 hours incubation, CellTiter-Glo, median, read-out: Antiproli SUDHL5 [M] (median)): 2.8e-06 M
CCc1c2c(nn1C)COCc1ccccc1Cn1c(C(=O)O)c(CCCOc3cccc4ccccc34)c3ccc(F)c-2c31 (single isomer, unassigned; enantiomer 2) [Example 72, (+)-4-Ethyl-3-fluoro-5-methyl-17-{3-[(naphthalen-1-yl)oxy]propyl}-5,7,9,14-tetrahydroindolo[7,1-fg]pyrazolo[3,4-d][2,8]benzoxazacycloundecine-16-carboxylic acid-N-ethylethanamine Salt (Enantiomer 2)]										5.2e-09	8.5e-06	2.6e-05	EC50 [1, 22]: 1.2e-05 M; IC50 [11, 23]: 18.9 µM; IC50 [10, 24]: 9.57 µM; IC50 [4, 25]: 15 µM; EC50 [5, 26]: > 2.8e-05 M; IC50 [8, 29]: 1.2e-05 M
